The results in this text go back to PubChem BioAssay (NCI).

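The compound was tested at five concentrations on cells cultured in 96-well plates, with a 48-hour exposure period. Abbreviation: GI50, concentration required for 50% inhibition of growth. TGI: total growth inhibition.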 A value given as a limit tells only on which side of the number the result lay.

Common to all, as to test: NCI anticancer screen, dose series, 48 h
The subject of assay [1] is NCI/ADR-RES ovarian.
For assay [2], the system named is DU-145 prostate.
The subject of assay [3] is OVCAR-4 ovarian.
In assay [4] the test system is HOP-62 NSCLC.
Assay [5] concerns MCF7 breast.
The subject of assay [6] is IGROV1 ovarian.
Assay [7] deals with PC-3 prostate.
Assay [8] has as its system HS 578T breast.
For assay [9], the system named is 786-0 renal.
In assay [10] the test system is HOP-92 NSCLC.

On to `O=[N+]([O-])c1ccc2[nH]c(=S)[nH]c(=S)c2c1`, for which the TGI in assay [1], in [2], in assay [3], in assay [4], in assay [5] and in [6] was > 100 µM throughout. Moreover, the TGI in assay [7], in [8], in assay [9] and in assay [10] was > 100 µM in each case.

In the case of `CN1CCN(C2CCN(C(=O)Nc3cc(Oc4ccc(NC(=O)C5(C(=O)Nc6ccc(F)cc6)CC5)c(F)c4)ccn3)CC2)CC1`, the GI50 in [1] is > 8.16 µM; in assay [2] it was 1.41 µM; in assay [3], 1.14 µM; in assay [5] it was 1.09 µM; in [6], 1.1 µM; in assay [7], 1.01 µM. Also, the GI50 in [8] was 0.688 µM; in assay [9], 1.67 µM; in [10], 0.483 µM. Moreover, the TGI in assay [1] is > 10 µM; in [2] it was > 10 µM; in assay [3] it was 9.84 µM; in assay [4], > 3.92 µM; in assay [5], > 10 µM; in assay [6], > 10 µM. The TGI in [7] is > 3.84 µM; in assay [8], > 2.52 µM; in assay [9], > 10 µM; in assay [10], > 2.54 µM.

On to `CCN1CCN(C(=O)[C@@]2(C)CC[C@]3(C)CC[C@]4(C)C(=CC(=O)[C@@H]5[C@@]6(C)CC[C@H](OC7C[C@@H](O)[C@@H](O)C(C)O7)C(C)(C)[C@@H]6CC[C@]54C)[C@@H]3C2)CC1` (stereo partly drawn), for which the GI50 is 2.53 µM in assay [1]; 8.71 µM in [2]; 1.27 µM in assay [3]; 2.39 µM in [4]; 1.79 µM in [5]; 1.68 µM in assay [6]. In addition, the GI50 in assay [7] is 2.47 µM; in assay [8] it was 7.52 µM; in assay [9], 0.933 µM; in assay [10], 5.25 µM. Besides, the TGI stood at 12.9 µM in [1]; 16.3 µM in assay [2]; 3.08 µM in assay [3]; 10.8 µM in assay [4]; 7.54 µM in assay [5]; 6.39 µM in assay [6]. For the same compound, the TGI turned out to be 9.02 µM in [7], 17.8 µM in assay [8], 1.82 µM in [9] and 12.5 µM in assay [10].

Turning to `c1ccc(-c2nnc(-c3ccccn3)s2)nc1`, the GI50 in assay [1] is > 100 µM; in [2], > 100 µM; in [3], > 100 µM; in [4] it was > 100 µM; in assay [5], 0.788 µM; in [6], 27.3 µM. Besides, the GI50 is > 100 µM in [7], > 100 µM in assay [8], > 100 µM in [9] and 7.46 µM in assay [10]. Also, the TGI in [1], in assay [2], in assay [3], in assay [4], in assay [5] and in assay [6] was > 100 µM in each case. For the same compound, the TGI in assay [7], in [8], in assay [9] and in assay [10] was > 100 µM throughout.

Turning to `COc1ccc(Sc2[nH]c(C(C)=O)c3ccccc23)cc1`, the GI50 in assay [1] is 11.8 µM; in assay [2] it was 16 µM; in assay [3], 13.3 µM; in assay [4] it was 12.7 µM; in [5], 12.2 µM; in [6], 11.8 µM. For the same compound, the GI50 in assay [7] is 11.1 µM; in [8], 10.9 µM; in [9], 16.5 µM; in assay [10], 2.4 µM. The TGI in [1] was found to be 31.8 µM; in assay [2] it was 36.8 µM; in assay [3], 32 µM; in assay [4], 25.3 µM; in assay [5] it was 24.6 µM; in [6], 43 µM. Besides, the TGI in assay [7] came out at 28.4 µM; in assay [8] it was 32.6 µM; in [9], 34.8 µM; in assay [10], 18.1 µM.

With `COc1ccc(C2SC(N)=Nc3c2c(C)nn3C(=O)c2ccncc2)cc1OC` (stereo not drawn), the TGI in assay [1], in assay [2], in [3], in assay [4], in assay [5] and in [6] was > 10 µM throughout. Also, the TGI in assay [7], in assay [8], in assay [9] and in assay [10] was > 10 µM throughout.

With `CO/N=C(/C)c1cccc(Nc2cc(-n3nnc4ccccc43)nc3ccccc23)c1`, the GI50 was 61.9 µM in assay [1]; 40.4 µM in [2]; 65.6 µM in [3]; 19.6 µM in [4]; 31.3 µM in assay [5]; > 100 µM in assay [6]. For the same compound, the GI50 in assay [7] is 8.64 µM; in [8], 42.8 µM; in assay [9], 45.5 µM; in assay [10], 3.98 µM. In addition, the TGI is > 100 µM in [1]; > 100 µM in assay [2]; > 100 µM in assay [3]; 53.6 µM in assay [4]; > 100 µM in assay [5]; > 100 µM in assay [6]. For the same compound, the TGI in assay [7] was 61.9 µM; in [8], > 100 µM; in [9], > 100 µM; in assay [10] it was 37.4 µM.

In the case of `CCOC(=O)C1=CN(C)C=C(C(=O)OCC)C1c1cc(Br)c(OCC)c(OC)c1`, the GI50 in assay [1] was > 100 µM; in [2], > 100 µM; in assay [3], 12.5 µM; in assay [4], > 100 µM; in [5] it was 32 µM; in assay [6], > 100 µM. Moreover, the GI50 was 8.29 µM in assay [7], 32.6 µM in [8], > 100 µM in assay [9] and 20.5 µM in assay [10]. Further, the TGI in assay [1], in [2], in [3], in assay [4], in assay [5] and in assay [6] was > 100 µM each time. Also, the TGI in assay [7], in assay [8], in assay [9] and in assay [10] was > 100 µM in each case.

Turning to `COc1ccc(OC)c2c1[nH]c(=O)c1c3ccccc3cn21`, the GI50 in [1] is 1.5 µM; in assay [2] it was 1.51 µM; in assay [3], 1.38 µM; in [4], 1.52 µM; in [5], 0.0727 µM; in assay [6], < 0.0281 µM. In addition, the GI50 is 1.39 µM in assay [7], 2.18 µM in [8], 1.88 µM in [9] and 1.5 µM in assay [10]. Moreover, the TGI in [1] was determined as 3.38 µM; in [2], 3.03 µM; in assay [3], 3.1 µM; in assay [4], 3.18 µM; in assay [5], 1.98 µM; in assay [6], 1.43 µM. The TGI in [7] was determined as 4.21 µM; in [8], 5.06 µM; in assay [9], 3.34 µM; in assay [10], 3.31 µM.

For `Cc1cc(Cl)cc(OCCn2cc(F)cn2)c1-c1nc(N)nc2c1CN(C(=O)NCC(C)(F)F)C2`, the GI50 in [1] was 53.1 µM; in [2], 0.0652 µM; in assay [3], > 100 µM; in [4] it was 0.622 µM; in assay [5] it was 0.0339 µM; in assay [6] it was 0.138 µM. Further, the GI50 was 0.0924 µM in assay [7], 3.18 µM in [9] and 0.192 µM in assay [10]. Further, the TGI in [1], in assay [2], in [3], in [4], in [5] and in [6] was > 100 µM each time. Moreover, the TGI was > 100 µM in assay [7], > 100 µM in assay [8], > 100 µM in assay [9] and 0.728 µM in assay [10].
